The target in the assay is Recombinant human HSD17B13 (Homo sapiens (Human), UniProt Q7Z5P4). Kind of assay: HSD17B13 rapid-fire mass spectrometry assay (RF/MS assay). The assay is classed as biochemical. The note with it: inhibition of HSD17B13; LTB4 10 μM, NAD+ 0.5 mM, RT 3 h; IC50 ranges A-E. The procedure, abridged: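 Sf9-expressed human HSD17B13 (80 nM) with 10 μM LTB4 and 0.5 mM NAD+, incubated with compound (0–100 μM) for 3 h at RT in Tris pH 7.5/BSA/Tween-20. After formic acid quench, LTB4 conversion to 12-oxo-LTB4 measured by RapidFire MS/MS. IC50 from normalised residual activity, duplicates.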
Recombinant human HSD17B13, sequence (Q7Z5P4 20-300): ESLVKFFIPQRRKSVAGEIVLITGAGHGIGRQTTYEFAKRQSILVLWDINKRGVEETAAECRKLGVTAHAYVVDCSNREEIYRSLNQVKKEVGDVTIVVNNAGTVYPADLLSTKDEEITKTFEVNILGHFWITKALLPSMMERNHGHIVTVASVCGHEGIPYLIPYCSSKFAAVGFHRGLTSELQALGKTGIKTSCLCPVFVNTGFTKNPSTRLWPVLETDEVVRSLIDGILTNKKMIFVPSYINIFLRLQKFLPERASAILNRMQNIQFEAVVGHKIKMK

Among the data in patent US12384753B2, “17-beta-hydroxysteroid dehydrogenase type 13 inhibitors and methods of use thereof” (Enanta Pharmaceuticals, Inc., priority 2021, dated 2025) are IC50 values, retold here.

As for `COc1cc(C(=O)O)c(F)cc1NS(=O)(=O)c1cnc(-c2ccc([C@H]3CC[C@@H](C(C)(C)C)CC3)cc2)s1` [Example 720], the IC50 – broadly, the midpoint of a concentration-inhibition curve – was in the range of 0.1 to 0.5 µM. The same measure for `COc1cc(C(=O)O)c(F)cc1NS(=O)(=O)c1cnc(-c2ccc([C@H]3CC[C@H](C(C)(C)C)CC3)cc2)s1` [Example 721]: 0.1 to 0.5 µM; for `COc1cc(C(=O)O)ccc1NS(=O)(=O)c1cnc(-c2ccc(C3=CC4CCC3C4)cc2)s1` (centres unmarked) [Example 722]: 0.1 to 0.5 µM. Consider `CC[C@H]1CC[C@H](c2ccc(-c3nc(S(=O)(=O)Nc4cc(F)c(C(=O)O)cc4OC)cs3)cc2)CC1` [Example 723], for which the half-maximal inhibitory concentration (IC50) was less than 0.1 µM. As for `COc1cc(C(=O)O)c(F)cc1NS(=O)(=O)c1cnc(-c2ccc([C@H]3CC[C@@H](C(F)(F)F)CC3)cc2)s1` [Example 724], the half-maximal inhibitory concentration (IC50) was less than 0.1 µM. The same measure for `COc1cc(C(=O)O)c(F)cc1NS(=O)(=O)c1cnc(-c2ccc([C@H]3CC[C@H](C(F)(F)F)CC3)cc2)s1` [Example 725]: less than 0.1 µM; for `COc1cc(C(=O)O)c(F)cc1NS(=O)(=O)c1cnc(-c2ccc(C3=CC=C(F)CC3)cc2)s1` [Example 726]: 0.1 to 0.5 µM. On to `COc1cc(C(=O)O)c(F)cc1NS(=O)(=O)c1cnc(-c2ccc(C3=CCC(F)(F)CC3)cc2)s1` [Example 727], for which the IC50 lay within 0.1 to 0.5 µM. For the compound `COc1cc(C(=O)O)c(F)cc1NS(=O)(=O)c1cnc(-c2ccc(C3=CCC(C)(C)CC3)cc2)s1` [Example 728], the IC50 is less than 0.1 µM. The same measure for `COc1cc(C(=O)O)c(F)cc1NS(=O)(=O)c1cnc(-c2ccc([C@H]3CC[C@@H](C(C)C)CC3)cc2)s1` [Example 729]: 0.1 to 0.5 µM; for `COc1cc(C(=O)O)c(F)cc1NS(=O)(=O)c1csc(-c2ccc([C@H]3CC[C@H](C(C)C)CC3)cc2)n1` [Example 730]: less than 0.1 µM. For `COc1cc(C(=O)O)c(F)cc1NS(=O)(=O)c1csc(-c2ccc(-c3ccc(C45CC6C[C@H](C4)C[C@H](C6)C5)cc3)cc2)n1` [Example 731], the concentration for half-maximal inhibition (IC50) was less than 0.1 µM. The same measure for `COc1cc(C(=O)O)c(F)cc1NS(=O)(=O)c1csc(-c2ccc(C34CC5C[C@H](C3)C[C@H](C5)C4)cc2)n1` [Example 732]: 0.1 to 0.5 µM. The same measure for `CCC[C@H]1CC[C@H]([C@H]2CC[C@@H](c3nc(S(=O)(=O)Nc4cc(F)c(C(=O)O)cc4OC)cs3)CC2)CC1` [Example 733]: 0.1 to 0.5 µM; for `CCC[C@H]1CC[C@H]([C@H]2CC[C@H](c3nc(S(=O)(=O)Nc4cc(F)c(C(=O)O)cc4OC)cs3)CC2)CC1` [Example 734]: 0.1 to 0.5 µM; for `COc1cc(C(=O)O)c(F)cc1NS(=O)(=O)c1csc(-c2ccc(-c3ccc(C(F)(F)C(F)(F)F)cc3)cc2)n1` [Example 735]: 0.1 to 0.5 µM.

For `COc1cc(C(=O)O)ccc1NS(=O)(=O)c1cnc(-c2ccc(C3=CCC4(CC3)CC4)cc2)s1` [Example 736], the 50% inhibitory concentration (IC50) lay in the range of 0.1 to 0.5 µM. The same measure for `COc1cc(C(=O)O)c(F)cc1NS(=O)(=O)c1csc(-c2ccc(-c3ccc(-c4ccc(C56CC7C[C@H](C5)C[C@H](C7)C6)cc4)cc3C(F)(F)F)cc2C(F)(F)F)n1` [Example 737]: 1 to 100 µM; for `COc1cc(C(=O)O)c(F)cc1NS(=O)(=O)c1csc(-c2ccc(-c3ccc(C45CC6C[C@H](C4)C[C@H](C6)C5)cc3)c(C(F)(F)F)c2)n1` [Example 738]: 0.1 to 0.5 µM; for `COc1cc(C(=O)O)c(F)cc1NS(=O)(=O)c1csc(-c2ccc(-c3ccc(C45CC6C[C@H](C4)C[C@H](C6)C5)cc3)c(F)c2F)n1` [Example 739]: 0.1 to 0.5 µM. The same measure for `COc1cc(C(=O)O)c(F)cc1NS(=O)(=O)c1csc(-c2ccc(-c3ccc(C(F)(F)F)cc3)cc2)n1` [Example 740]: less than 0.1 µM.

As for `COc1cc(C(=O)O)c(F)cc1NS(=O)(=O)c1csc(-c2ccc(C3=CCC(C(C)C)CC3)cc2C(F)(F)F)n1` (centres unmarked) [Example 741], the IC50 was less than 0.1 µM. The same measure for `COc1cc(C(=O)O)c(F)cc1NS(=O)(=O)c1csc(-c2ccc(-c3ccc(C4=CCC(C(C)C)CC4)cc3C(F)(F)F)cc2C(F)(F)F)n1` (centres unmarked) [Example 742]: 0.1 to 0.5 µM; for `COc1cc(C(=O)O)c(F)cc1NS(=O)(=O)c1csc(-c2ccc(-c3ccc(C45CC6C[C@H](C4)C[C@H](C6)C5)cc3)c(OC)c2)n1` [Example 743]: 0.1 to 0.5 µM.

Consider `COc1cc(C(=O)O)c(F)cc1NS(=O)(=O)c1csc(-c2ccc(-c3ccc(C45CC6C[C@H](C4)C[C@H](C6)C5)cc3)cc2OC)n1` [Example 744], for which the IC50 lay within 0.1 to 0.5 µM. Consider `COc1cc(C(=O)O)c(F)cc1NS(=O)(=O)c1csc(-c2ccc(C(F)(F)C(F)(F)F)cc2)n1` [Example 745], for which the 50% inhibitory concentration (IC50) lay in the range of 0.1 to 0.5 µM. The same measure for `COc1cc(C(=O)O)ccc1NS(=O)(=O)c1cnc(-c2ccc(C3CCC4(CC3)CC4)cc2)s1` [Example 746]: 0.1 to 0.5 µM; for `COc1cc(C(=O)O)c(F)cc1NS(=O)(=O)c1csc(-c2ccc(C3=CCC(C(C)(C)C)CC3)cc2)n1` (centres unmarked) [Example 747]: less than 0.1 µM; for `COc1cc(C(=O)O)c(F)cc1NS(=O)(=O)c1csc(-c2ccc(C3(O)CCC(C)(C)CC3)cc2)n1` [Example 748]: less than 0.1 µM.

Turning to `COc1cc(C(=O)O)ccc1NS(=O)(=O)c1csc(-c2ccc(F)cc2)n1` [Example 749], the IC50 lay in the range of 0.1 to 0.5 µM. For the compound `COc1cc(C(=O)O)c(F)cc1NS(=O)(=O)c1csc(-c2ccc(-c3ccc(C45CC6C[C@H](C4)C[C@H](C6)C5)cc3)c(OC(F)(F)F)c2)n1` [Example 750], the concentration for half-maximal inhibition (IC50) lay in the range of 0.1 to 0.5 µM. With `COc1cc(C(=O)O)c(F)cc1NS(=O)(=O)c1csc(-c2ccc(-c3ccc(C4CCC(C(C)C)CC4)cc3C(F)(F)F)cc2C(F)(F)F)n1` (centres unmarked) [Example 753], the IC50 is 0.1 to 0.5 µM. For the compound `COc1cc(C(=O)O)c(F)cc1NS(=O)(=O)c1csc(-c2ccc(-c3ccc([C@H]4CC[C@H](C(C)C)CC4)cc3C(F)(F)F)cc2C(F)(F)F)n1` [Example 754], the IC50 was in the range of 0.1 to 0.5 µM. The same measure for `CCC[C@H]1CC[C@H](c2ccc(-c3nc(S(=O)(=O)Nc4cc(F)c(C(=O)O)cc4OC)cs3)c(F)c2)CC1` [Example 755]: less than 0.1 µM.

In the case of `COc1cc(C(=O)O)c(F)cc1NS(=O)(=O)c1csc(-c2ccc(-c3ccc(C(C)(F)F)cc3)cc2C(F)(F)F)n1` [Example 756], the IC50 was less than 0.1 µM. The same measure for `COc1cc(C(=O)O)c(F)cc1NS(=O)(=O)c1csc(-c2ccc(-c3ccc(C4CC4)cc3C(F)(F)F)cc2C(F)(F)F)n1` [Example 757]: less than 0.1 µM. As for `COc1cc(C(=O)O)c(F)cc1NS(=O)(=O)c1csc(-c2ccc(C3=CCC4(CC3)CC4)cc2)n1` [Example 758], the IC50 fell in the range of 0.1 to 0.5 µM. The same measure for `CCCCC[C@H]1CC[C@H](c2ccc(-c3nc(S(=O)(=O)Nc4cc(F)c(C(=O)O)cc4OC)cs3)c(F)c2)CC1` [Example 759]: 0.1 to 0.5 µM. The same measure for `COc1cc(C(=O)O)c(F)cc1NS(=O)(=O)c1csc(-c2ccc(-c3ccc(C45CC6C[C@H](C4)C[C@H](C6)C5)cc3)cc2F)n1` [Example 760]: less than 0.1 µM. The same measure for `COc1cc(C(=O)O)c(F)cc1NS(=O)(=O)c1csc(-c2ccc([C@H]3CC[C@@H](C(C)(C)C)CC3)cc2)n1` [Example 761]: 0.1 to 0.5 µM; for `COc1cc(C(=O)O)c(F)cc1NS(=O)(=O)c1csc(-c2ccc([C@H]3CC[C@H](C(C)(C)C)CC3)cc2)n1` [Example 762]: less than 0.1 µM; for `COc1cc(C(=O)O)c(F)cc1NS(=O)(=O)c1csc(-c2ccc(OC3CCCCC3)cc2)n1` [Example 763]: 0.1 to 0.5 µM. For the compound `COc1cc(C(=O)O)c(F)cc1NS(=O)(=O)c1cnc(-c2ccc(C3CCC(C)(C)CC3)cc2)s1` [Example 764], the IC50 is less than 0.1 µM. The same measure for `COc1cc(C(=O)O)c(F)cc1NS(=O)(=O)c1cnc(-c2ccc(C3=CCC(C(C)C)CC3)cc2)s1` (centres unmarked) [Example 765]: 0.1 to 0.5 µM; for `COc1cc(C(=O)O)c(F)cc1NS(=O)(=O)c1cnc(-c2ccc(-c3ccc(C45CC6C[C@H](C4)C[C@H](C6)C5)cc3)cc2)s1` [Example 766]: 0.1 to 0.5 µM; for `COc1cc(C(=O)O)c(F)cc1NS(=O)(=O)c1csc(-c2ccc(F)cc2)n1` [Example 767]: 0.1 to 0.5 µM. With `COc1cc(C(=O)O)c(F)cc1NS(=O)(=O)c1cnc(-c2ccc([C@H]3CC[C@H](C(C)C)CC3)cc2)s1` [Example 769], the IC50 lay in the range of 0.1 to 0.5 µM. The same measure for `COc1cc(C(=O)O)c(F)cc1NS(=O)(=O)c1cnc(-c2ccc(-c3ccc(C(F)(F)C(F)(F)F)cc3)cc2)s1` [Example 770]: less than 0.1 µM; for `COc1cc(C(=O)O)c(F)cc1NS(=O)(=O)c1csc(-c2ccc(C3=CCC(C(C)C)CC3)c(F)c2F)n1` (centres unmarked) [Example 771]: less than 0.1 µM. For the compound `COc1cc(C(=O)O)c(F)cc1NS(=O)(=O)c1csc(-c2ccc([C@H]3CC[C@@H](C(C)C)CC3)c(F)c2F)n1` [Example 772], the IC50 is less than 0.1 µM.

For the compound `COc1cc(C(=O)O)c(F)cc1NS(=O)(=O)c1csc(-c2ccc([C@H]3CC[C@H](C(C)C)CC3)c(F)c2F)n1` [Example 773], the 50% inhibitory concentration (IC50) is less than 0.1 µM. Turning to `COc1cc(C(=O)O)c(F)cc1NS(=O)(=O)c1csc(-c2ccc(C3=CCC(C(C)C)CC3)cc2)n1` (centres unmarked) [Example 774], the IC50 was less than 0.1 µM. Turning to `COc1cc(C(=O)O)c(F)cc1NS(=O)(=O)c1csc(-c2ccc(-c3ccc(C45CC6C[C@H](C4)C[C@H](C6)C5)cc3)cc2C(F)(F)F)n1` [Example 775], the IC50 is less than 0.1 µM. The same measure for `COc1cc(C(=O)O)c(F)cc1NS(=O)(=O)c1csc(-c2ccc(C3=CCC(C(C)(C)C)CC3)cc2C(F)(F)F)n1` (centres unmarked) [Example 776]: less than 0.1 µM; for `COc1cc(C(=O)O)c(F)cc1NS(=O)(=O)c1csc(-c2ccc(C3CCC4(CC3)CC4)cc2)n1` [Example 778]: less than 0.1 µM. Turning to `CCC[C@H]1CC[C@H](C2CC=C(c3nc(S(=O)(=O)Nc4cc(F)c(C(=O)O)cc4OC)cs3)CC2)CC1` (some centres unmarked) [Example 779], the half-maximal inhibitory concentration (IC50) is 0.1 to 0.5 µM.
